For one assay, the system named is CAPAN-1. Kind of assay: Antiproliferative activity against human CAPAN-1 cells assessed as inhibition of cell proliferation measured after 72 hrs by MTT assay. The assay is classed as functional, cell-based. As to conditions: CAPAN-1, 72 h.
As to `N[C@@H]1CCN(C(=O)c2csc3c(O)c4c(c(O)c23)C(=O)c2ccccc2C4=O)C1`, the IC50 is 2000 nM.
The same measure, in the same setting: the same measure for `CCn1c(C)c(C(=O)N2CC[C@H](N)C2)c2c(O)c3c(c(O)c21)C(=O)c1ccccc1C3=O`: 1200 nM.
On the same count and under the same terms, the same measure for `Cc1c(C(=O)N2CC[C@H](N)C2)c2c(O)c3c(c(O)c2n1CC(=O)O)C(=O)c1ccccc1C3=O`: 14300 nM.
Still for that read-out and setting: next, `Cc1[nH]c2c(O)c3c(c(O)c2c1C(=O)N[C@H]1CCNC1)C(=O)c1ccccc1C3=O`: 1000 nM; `Cc1[nH]c2c(O)c3c(c(O)c2c1C(=O)NC1CCCNC1)C(=O)c1ccccc1C3=O` (stereo not drawn): 400 nM.

The test system of another assay is HCT-116. Kind of assay: Antiproliferative activity against human HCT-116 cells assessed as inhibition of cell proliferation measured after 72 hrs by MTT assay. As to conditions: HCT-116, 72 h. The assay is classed as functional, cell-based. (In general: Tetrazolium dyes change colour on reduction, which living cells bring about.)
For the molecule `N[C@@H]1CCN(C(=O)c2csc3c(O)c4c(c(O)c23)C(=O)c2ccccc2C4=O)C1`, the IC50 is 2000 nM.
For the molecule `CCn1c(C)c(C(=O)N2CC[C@H](N)C2)c2c(O)c3c(c(O)c21)C(=O)c1ccccc1C3=O`, the IC50 is 2300 nM.
Same read-out and setting: next, `Cc1c(C(=O)N2CC[C@H](N)C2)c2c(O)c3c(c(O)c2n1CC(=O)O)C(=O)c1ccccc1C3=O`: 17100 nM; `Cc1[nH]c2c(O)c3c(c(O)c2c1C(=O)N[C@H]1CCNC1)C(=O)c1ccccc1C3=O`: 1800 nM.
With `Cc1[nH]c2c(O)c3c(c(O)c2c1C(=O)NC1CCCNC1)C(=O)c1ccccc1C3=O` (stereo not drawn), the IC50 was determined as 1000 nM.

The test system of the next assay is NCI-H460. Kind of assay: Antiproliferative activity against human NCI-H460 cells assessed as inhibition of cell proliferation measured after 72 hrs by MTT assay. The assay is classed as functional, cell-based. As to conditions: NCI-H460, 72 h.
For `N[C@@H]1CCN(C(=O)c2csc3c(O)c4c(c(O)c23)C(=O)c2ccccc2C4=O)C1`, the IC50 came to 800 nM.
With `CCn1c(C)c(C(=O)N2CC[C@H](N)C2)c2c(O)c3c(c(O)c21)C(=O)c1ccccc1C3=O`, the IC50 worked out at 2100 nM.
Regarding `Cc1c(C(=O)N2CC[C@H](N)C2)c2c(O)c3c(c(O)c2n1CC(=O)O)C(=O)c1ccccc1C3=O`, the IC50 turned out to be 20000 nM.
Still for that read-out and setting: next, `Cc1[nH]c2c(O)c3c(c(O)c2c1C(=O)N[C@H]1CCNC1)C(=O)c1ccccc1C3=O`: 5300 nM.
`Cc1[nH]c2c(O)c3c(c(O)c2c1C(=O)NC1CCCNC1)C(=O)c1ccccc1C3=O` (stereo not drawn): the IC50 came out at 1000 nM.

The next assay concerns HL-60. Kind of assay: Antiproliferative activity against human HL-60 cells assessed as inhibition of cell proliferation measured after 72 hrs by MTT assay. The assay is classed as functional, cell-based. As to conditions: HL-60, 72 h.
As for `N[C@@H]1CCN(C(=O)c2csc3c(O)c4c(c(O)c23)C(=O)c2ccccc2C4=O)C1`, the IC50 was 4100 nM.
With `CCn1c(C)c(C(=O)N2CC[C@H](N)C2)c2c(O)c3c(c(O)c21)C(=O)c1ccccc1C3=O`, the IC50 was 1100 nM.
On the same count and under the same terms, next, `Cc1c(C(=O)N2CC[C@H](N)C2)c2c(O)c3c(c(O)c2n1CC(=O)O)C(=O)c1ccccc1C3=O`: 13300 nM; `Cc1[nH]c2c(O)c3c(c(O)c2c1C(=O)N[C@H]1CCNC1)C(=O)c1ccccc1C3=O`: 1000 nM.
In the case of `Cc1[nH]c2c(O)c3c(c(O)c2c1C(=O)NC1CCCNC1)C(=O)c1ccccc1C3=O` (stereo not drawn), the IC50 turned out to be 1800 nM.

The next assay concerns K562. Kind of assay: Antiproliferative activity against human K562 cells assessed as inhibition of cell proliferation measured after 72 hrs by MTT assay. The assay is classed as functional, cell-based. The conditions noted are these: K562, 72 h.
On to `N[C@@H]1CCN(C(=O)c2csc3c(O)c4c(c(O)c23)C(=O)c2ccccc2C4=O)C1`, for which the IC50 stood at 1200 nM.
Same read-out and setting: next, `CCn1c(C)c(C(=O)N2CC[C@H](N)C2)c2c(O)c3c(c(O)c21)C(=O)c1ccccc1C3=O`: 1700 nM; `Cc1c(C(=O)N2CC[C@H](N)C2)c2c(O)c3c(c(O)c2n1CC(=O)O)C(=O)c1ccccc1C3=O`: 13400 nM; `Cc1[nH]c2c(O)c3c(c(O)c2c1C(=O)N[C@H]1CCNC1)C(=O)c1ccccc1C3=O`: 700 nM.
Same read-out and setting: the same measure for `Cc1[nH]c2c(O)c3c(c(O)c2c1C(=O)NC1CCCNC1)C(=O)c1ccccc1C3=O` (stereo not drawn): 3200 nM.

System in the next assay: not listed separately
Kind of assay: Antiproliferative activity against P-gp-positive/doxorubicin-resistant human K562/4 cells assessed as inhibition of cell proliferation measured after 72 hrs by MTT assay. As to conditions: K562/4, 72 h. The assay is classed as functional.
For `CCn1c(C)c(C(=O)N2CC[C@H](N)C2)c2c(O)c3c(c(O)c21)C(=O)c1ccccc1C3=O`, the 50% inhibitory concentration (IC50) was determined as 28000 nM.

The next assay deals with HCT-116. Kind of assay: Antiproliferative activity against human HCT-116 cells with inactivated p53 gene assessed as inhibition of cell proliferation measured after 72 hrs by MTT assay. The assay is classed as functional, cell-based. The conditions noted are these: HCT-116, 72 h.
`CCn1c(C)c(C(=O)N2CC[C@H](N)C2)c2c(O)c3c(c(O)c21)C(=O)c1ccccc1C3=O`: the IC50 was determined as 2500 nM.

The next assay has as its system TERT-RPE1. Kind of assay: Cytotoxicity against human TERT-RPE1 cells assessed as inhibition of cell proliferation measured after 72 hrs by MTT assay. The assay is classed as cell-based. As to conditions: RPE-1, 72 h.
On to `N[C@@H]1CCN(C(=O)c2csc3c(O)c4c(c(O)c23)C(=O)c2ccccc2C4=O)C1`, for which the IC50 was determined as 12600 nM.
On to `CCn1c(C)c(C(=O)N2CC[C@H](N)C2)c2c(O)c3c(c(O)c21)C(=O)c1ccccc1C3=O`, for which the IC50 was 13600 nM.
Still for that read-out and setting: next, `Cc1c(C(=O)N2CC[C@H](N)C2)c2c(O)c3c(c(O)c2n1CC(=O)O)C(=O)c1ccccc1C3=O`: greater than 20000 nM; `Cc1[nH]c2c(O)c3c(c(O)c2c1C(=O)N[C@H]1CCNC1)C(=O)c1ccccc1C3=O`: 17100 nM; `Cc1[nH]c2c(O)c3c(c(O)c2c1C(=O)NC1CCCNC1)C(=O)c1ccccc1C3=O` (stereo not drawn): 12500 nM.

System in a further assay: not listed separately
Kind of assay: Resistance index, ratio of IC50 for human P-gp-positive/Doxorubicin-resistant K562/4 cells to IC50 for human K562 cells. The assay is classed as functional.
Details: not given
In the case of `CCn1c(C)c(C(=O)N2CC[C@H](N)C2)c2c(O)c3c(c(O)c21)C(=O)c1ccccc1C3=O`, the “Ratio IC50” value is given as 16.5.

In general, IC50 refers to the concentration needed to halve the response being measured.
